Assay results reported in US20040170622A1, “Methods and compositions for modulating XBP-1 activity” (President and Fellows of Harvard College, priority 2002, published 2004).
Where a SMILES comes first, the peptide text is derived from it. The star is where a group is joined. Cbz = O=C(OCc1ccccc1)*

Experiments:
Assay type in all cases: cell-based
IRE1α = IRE1α phosphorylation in NIH3T3 cells (Western blot)
Protocol: (§1) (A) XBP-1 mRNA levels in ER stressed J558 cells treated with Tm for 4 hrs in the absence or presence of MG-132. Cells were pretreated with MG-132 for 1 hr before adding Tm. XBP-1 mRNA levels were determined by Northern blot analysis. […] (C) Effect of a panel of PIs on XBP-1 splicing. Cells were treated with Tm for 4 hrs in the absence or presence of MG-132 (10 μM), PS-341 (10 μM), Lactacystin (10 μM), ZL3VS (50 μM) or AdaAhxL3VS (50 μM), and XBP-1 mRNA splicing measured by RT-PCR analysis. (D) IRE-1α phosphorylation in NIH3T3 cells were treated with Tm as indicated after 2 hrs of pretreatment with MG-132 (10 μM).
Cells were lysed in RIPA buffer (50 mM Tris pH 7.4, 150 mM NaCl, 1 mM EDTA, 1% Triton X-100, 1% sodium deoxycholate, 0.1% SDS) and lysates subjected to SDS-PAGE and transferred to Hybond P membrane (Amersham-Pharmacia, Piscataway, N.J.). […] HeLa cells were cotransfected with XBP-1u and His-tagged ubiquitin expression plasmids (pMT 107, D. Bohmann, EMBL, Germany) by using the Lipofectamine-2000 reagent (Invitrogen, Carlsbad, Calif.). […] Degradation rates of XBP-1u and XBP-1s proteins were determined by pulse labeling J558 cells with ^35S Met/Cys for 1 hr and chasing for the indicated times.

[1] = system: IRE1α-mediated XBP-1 mRNA splicing; test: XBP-1 mRNA level and splicing in J558 cells (Northern blot, RT-PCR); details: for XBP-1 mRNA splicing, agent alone (RT-PCR) / overall levels of XBP-1 RNA (Northern blot): J558 cells
Protocol: as §1
(§2) Total RNA was prepared by using Trizol reagent, electrophoresed on 1.2% agarose, 6% formaldehyde gels and then transferred onto Genescreen Plus membrane, (NEN, Boston, Mass.). […] Probes for ERdj4 and p58^IPK were generated from cDNA excised from EST clones (ATCC, Manassas, Va.) using appropriate restriction enzymes (ERdj4, IMAGE: 1920927; p58^IPK, IMAGE:2646147).

BiP and CHOP = test: UPR target gene expression in NIH3T3 and J558 myeloma cells (Northern blot); details: for induction of UPR target genes (BiP, CHOP), agent alone: MG-132 20 μM, Tm 10 μg/ml
Protocol: (A) BiP and CHOP induction was examined by northern blot analysis after treating NIH3T3 or J558 myeloma cells with either MG-132 (20 μM), Tm (10 μg/ml) or both. Cells were pretreated with MG-132 for 1 hr and then further treated with Tm for 4 hrs. Ethidium bromide staining of the gel is shown at the bottom. (B) Inhibition of caspase-12 processing by proteasome inhibitors. Processing of full-length caspase-12 was examined by Western blotting in J558 myeloma cells treated with thapsigargin (1 μM) or PIs (20 μM) during the indicated time periods. (C) Alteration in the ratio of XBP-1 protein species in J558 cells were treated with increasing amounts of MG-132 for 16 hrs. Cells undergoing apoptosis were counted by Annexin V staining. (D) Time course of the XBP-1s to XBP-1u shift. Cells were treated with MG-132 (1 μM) for the indicated times and XBP-1u and spliced protein levels and cell death determined. (E) Alteration in the ratio of XBP-1 species in the MM.1s human myeloma line. Cells were treated with PS-341 (8 nM) in a time course analysis and XBP-1 protein species quantified.
as §2
The maturation and folding of ER membrane and secretory proteins relies on the activity of ER-resident chaperones and folding enzymes. ER proteins that ultimately fail to fold properly are degraded by the 26S proteasome, or ERAD. […] To test the effect of proteasome dysfunction on UPR activation, NIH3T3 fibroblasts (left panel) and J558 myeloma cells (right panel) were treated with the proteasome inhibitor (PI) MG-132 in the presence or absence of the ER stress inducer, tunicamycin (Tm), and the expression of UPR target genes assessed (FIG. 10a).

Compound | effect on Tm-induced IRE1α phosphorylation (IRE1α; 2 hrs pretreatment with MG-132 10 μM) | effect on Tm-induced XBP-1 mRNA splicing ([1]; J558, Tm 4 hrs, MG-132 10 μM, PS-341 10 μM, ZL3VS 50 μM, AdaAhxL3VS 50 μM) | XBP-1 mRNA splicing, agent alone (RT-PCR) [1] | overall levels of XBP-1 RNA (Northern blot) [1] | induction of UPR target genes (BiP, CHOP), agent alone (BiP and CHOP) | effect on Tm-induced stress response (BiP and CHOP; MG-132 pretreatment 1 hr, then Tm 4 hrs, NIH3T3 and J558) | IRE1α phosphorylation (IRE1α; Tm-treated vs untreated cells)
CC(C)C[C@@H](C=O)NC(=O)[C@H](CC(C)C)NC(=O)[C@H](CC(C)C)NC(=O)OCc1ccccc1 [MG-132] (Cbz-Leu-Leu-Leu-aldehyde) | completely blocked the phosphorylation of IRE1α by Tm | suppressed by MG-132 in a dose dependent manner | did not induce any XBP-1mRNA splicing | not significantly altered | also induced the UPR | blocked rather than further augmented the Tm-induced stress response | –
tunicamycin [Tm] | – | – | markedly induced XBP-1 mRNA splicing | not significantly altered | induction of expression of representative UPR target genes such as BiP (Grp78) and CHOP | – | increase in the phosphorylated (slower mobility) and decrease in unphosphorylated IRE1α species
